# Test results reported in patent publication US7378082B1, “Method for treating allergic rhinitis without adverse effects” (Inspire Pharmaceuticals, Inc., priority 2007, dated 2008).
# Details: intranasal 0.05% or 0.1% nasal spray; after first dose (Day 1) and last dose (Day 14); 43 subjects
# Protocol: Each group started with approximately 190 subjects.
# Plasma epinastine levels following intranasal administration were determined.
compound,measurement,value
"NC1=NCC2c3ccccc3Cc3ccccc3N12 (stereo not shown) [epinastine, 3-amino-9,13b-dihydro-1H-dibenz-[c,-f]imidazol[1,5-a]azepine]",Plasma concentrations of epinastine,< 1 ng/mL
